Measured values taken from patent US6169065A, “Method for the activity of an enzyme” (Lever Brothers Company division of Conopco Company, priority 1997, dated 2001).

Columns and labels:
Type in all cases: biochemical
[1] = molecular target: T1, Arthromyces ramosus peroxidase (Arthromyces ramosus, UniProt P28313); assay: Oxidation (bleaching) of Reactive Black 5 by peroxidase plus enhancer; details: for % bleaching / ΔAbs: 590 nm, 25° C., pH 9, 30 min
T1 construct: purchased Sigma P4794
T1 sequence (P28313 21-364): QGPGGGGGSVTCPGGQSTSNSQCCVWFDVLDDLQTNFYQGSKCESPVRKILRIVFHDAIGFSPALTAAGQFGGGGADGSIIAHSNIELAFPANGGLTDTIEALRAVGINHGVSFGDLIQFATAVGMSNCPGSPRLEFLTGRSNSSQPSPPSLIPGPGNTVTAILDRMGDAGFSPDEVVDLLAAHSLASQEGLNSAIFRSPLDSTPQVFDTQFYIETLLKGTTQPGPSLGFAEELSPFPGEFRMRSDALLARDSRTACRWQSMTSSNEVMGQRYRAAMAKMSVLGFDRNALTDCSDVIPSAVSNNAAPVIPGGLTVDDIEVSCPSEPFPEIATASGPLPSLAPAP
Method: The oxidation of Reactive Black 5 (RB5) is monitored at 590 nm in a spectrophotometer. […] The reaction was carried out for 30 minutes at room temperature. The difference in absorbance between t=0 and t=30 min (Δ Abs in Table) is a measure of the enhancing activity of the system tested.
ARP [6 u/ml], H2 O2 [250 μM], RB5 [60 μM], Enhancers [100 μM]
(§1) Examples 3-7 were repeated using 2-azaPTP, 4-azaPTP and PTP.

[2] = molecular target: T1, Arthromyces ramosus peroxidase; assay: Oxidation (bleaching) of Direct Green 26 by peroxidase plus enhancer; details: 25° C., pH 9, 30 min
Method: The oxidation of Direct Green 26 (DG26) is monitored at 610 nm in a spectrophotometer. […] The reaction was carried out for 30 minutes at room temperature. The difference in absorbance between t=0 and t=30 min (Δ Abs in Table) is a measure of the enhancing activity of the system tested.
as §1

[3] = molecular target: T1, Arthromyces ramosus peroxidase; assay: Oxidation (bleaching) of Direct Red 80 by peroxidase plus enhancer; details: pH 9, 30 min
Method: The reagents are added, using a pipette, in the following order, to a 1-cm cuvette: aqueous carbonate buffer pH 9 (20 mM), DR80 (60 μM), enhancer (various concentrations) and peroxidase enzyme (Arthromyces ramosus peroxidase from Sigma, P4794); 60 units/ml). The reaction was carried out for 30 minutes at room temperature. The difference in absorbance between t=0 and t=30 min (Δ Abs in Table) is a measure of the enhancing activity of the system tested.
as §1

[4] = molecular target: T2, laccase (Polyporus pinsitus) (Trametes villosa, UniProt Q99044); assay: Oxidation of Reactive Black 5 by laccase plus enhancer; details: for decrease in absorbance after 3 h: 25 C, laccase 30 u/ml, enhancer 67 μM
T2 sequence (Q99044 22-520): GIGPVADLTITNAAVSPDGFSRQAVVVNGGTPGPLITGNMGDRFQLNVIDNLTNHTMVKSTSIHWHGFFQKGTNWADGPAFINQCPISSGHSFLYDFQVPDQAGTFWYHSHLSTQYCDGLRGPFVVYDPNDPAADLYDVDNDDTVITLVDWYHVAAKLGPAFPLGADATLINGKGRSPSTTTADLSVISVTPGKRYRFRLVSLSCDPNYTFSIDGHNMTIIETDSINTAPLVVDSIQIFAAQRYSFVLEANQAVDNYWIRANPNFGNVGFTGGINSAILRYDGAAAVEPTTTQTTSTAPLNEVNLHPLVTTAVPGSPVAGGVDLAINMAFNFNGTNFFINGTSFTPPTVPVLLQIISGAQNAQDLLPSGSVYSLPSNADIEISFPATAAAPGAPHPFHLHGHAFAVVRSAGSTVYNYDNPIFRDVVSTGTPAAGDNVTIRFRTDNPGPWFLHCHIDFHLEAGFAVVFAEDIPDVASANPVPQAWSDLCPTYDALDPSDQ
Method: The laccase activity is measured on a spectrophotometer with 2 mM ABTS in 20 mM sodium phosphate buffer pH 6.0 at 25° C. The oxidation of Reactive Black 5 (RB5) is monitored at 575 nm. The reagents are added, using a pipette, in the following order, to a 1-cm cuvette: aqueous tris buffer pH 9 (20 mM) or sodium phosphate buffer pH 6.0 (20 mM), RB5 (67 μM), enhancer (67 μM), and laccase (Polyporus pinsitus, 30 units/ml). The reaction was carried for 3 hours at room temperature. The difference in absorbance between t=0 and t=3 hours is a measure of the enhancing activity of the system tested. RB5 [575 nm]: 25 C, pH 6.0 and 9.0, 3 h. Laccase [30 u/ml], RB5 [67 μM], Enhancers [67 μM]. The values listed are the decrease in absorbance at […] after 3 h.

[5] = molecular target: T2, laccase (Polyporus pinsitus); assay: Oxidation of Direct Green 26 by laccase plus enhancer; details: 25° C., laccase 30 u/ml, enhancer 67 μM
Method: The oxidation of Direct Green 26 (DG26) is monitored at 605 nm in a spectrophotometer. The reagents are added, using a pipette, in the following order, to a 1-cm cuvette: aqueous tris buffer pH 9 (20 mM) or sodium phosphate buffer pH 6.0 (20 mM), DG26 (67 μM), enhancer (67 μM), and laccase (Polyporus pinsitus, 30 units/ml). The reaction was carried for 3 hours at room temperature. The difference in absorbance between […] and t=3 h is a measure of the enhancing activity of the system tested. DG26 [605 nm]: 25° C., pH 6.0 and 9.0, 3 h. Laccase [30 u/ml], DG26 [67 μM], Enhancers [67 μM]. The values listed are the decrease in absorbance at 605 nm after 3 h.

[6] = Example 8: RB5 60 μM, ARP 10 u/ml, H2O2 100 μM, enhancer 200 μM
[7] = Example 8: DG26, 610 nm, ARP 10 u/ml, H2O2 100 μM, dye 60 μM, enhancer 200 μM
[8] = Example 8: DR80, 530 nm, 25° C., ARP 10 u/ml, H2O2 100 μM, dye 60 μM, enhancer 100 μM
[9] = Example 8: DR80, 530 nm, 25° C., ARP 10 u/ml, H2O2 100 μM, dye 60 μM, enhancer 200 μM
[10] = RB5 60 μM, ARP 6 u/ml, H2O2 250 μM, enhancer 100 μM
[11] = DG26 60 μM, 610 nm, ARP 60 u/ml, H2O2 250 μM, enhancer 100 μM
[12] = DR80 60 μM, 500 nm, 25C, ARP 60 u/ml, H2O2 250 μM, enhancer 100 μM
[13] = DR80 60 μM, 500 nm, 25° C., ARP 60 u/ml, H2O2 250 μM, enhancer 10 μM
[14] = DR80 60 μM, 500 nm, 25° C., ARP 60 u/ml, H2O2 250 μM, enhancer 25 μM
[15] = DR80 60 μM, 500 nm, 25° C., ARP 60 u/ml, H2O2 250 μM, enhancer 50 μM

SMILES | % bleaching [1, 6] | % bleaching [2, 7] | % bleaching [3, 8] | % bleaching [3, 9] | % bleaching [1, 10] | ΔAbs [1, 10] | % bleaching [2, 11] | ΔAbs [2, 11] | % bleaching [3, 12] | ΔAbs [3, 12] | % bleaching [3, 13] | ΔAbs [3, 13] | % bleaching [3, 14] | ΔAbs [3, 14] | % bleaching [3, 15] | ΔAbs [3, 15] | decrease in absorbance after 3 h ([4]; pH 6.0, RB5 67 μM) | decrease in absorbance after 3 h ([4]; pH 9.0, RB5 67 μM) | decrease in absorbance at 605 nm after 3 h ([5]; pH 6.0, DG26 67 μM) | decrease in absorbance at 605 nm after 3 h ([5]; pH 9.0, DG26 67 μM) | also measured
O=C(O)CCN1c2ccccc2Sc2cnccc21 [Enhancer 2-aza-PTP, 10-(pyrido[3,4-b][1,4]benzothiazyl)propionic acid] | 63% | 31% | 12% | 20% |  |  |  |  |  |  |  |  |  |  |  |  |  |  |  |  | 
O=C(O)CCN1c2ccccc2Sc2ccccc21 [PTP, reference compound] | 35% | 29% | 6% | 2% | 80% | 1.03 | 65% | 0.92 | 48% | 0.78 | 20% | 0.33 | 40% | 0.66 | 50% | 0.82 | 0.32 | 0.24 | 0.14 | 0.37 | 
O=C(O)CCN1c2ccccc2Sc2cccnc21 [Enhancer 4-aza-PTP, 10-(pyrido[3,2-b][1,4]benzothiazyl)propionic acid] | 64% | 43% | 18% | 10% | 76% | 1.01 | 78% | 1.09 | 33% | 0.50 | 60% | 0.98 | 83% | 1.26 | 60% | 0.91 | 0.48 | 0.26 | 0.34 | 0.30 | enhancing capabilities with peroxidase ([1]; summary of Examples 3-5, especially at lower concentrations (Example 5)): excellent enhancing capabilities; enhancing capabilities with laccase ([4]; summary of Examples 6-7): excellent enhancing capabilities
